Assay results taken from the Deep4Chem optical property database.
Each block holds one molecule with its values, some of them ahead of it.

Assay: solvent given as SMILES
[1] = in O=P(c1ccccc1)(c1ccccc1)c1ccc2oc3ccc(P(=O)(c4ccccc4)c4ccccc4)cc3c2c1

Structure (SMILES): CC(C)(C)c1ccc(C(C)(C)C)c(N2C(=O)c3cccc4c(-c5ccc(-c6ccc(N(c7ccccc7)c7ccccc7)cc6)s5)ccc(c34)C2=O)c1
fluorescence lifetime (in Cc1ccccc1): 2.6 ns

fluorescence lifetime (in C1CCOC1): 1.77 ns
Structure (SMILES): CCn1c2ccccc2c2cc(-c3cc(-c4ccc5c(c4)c4ccccc4n5CC)nc(-c4ccccc4)n3)ccc21

fluorescence lifetime (in ClCCl): 7.1 ns
Structure (SMILES): COc1ccc(-c2c3ccccc3c(C#Cc3ccccc3)c3cc4cc(C)sc4cc23)cc1

Structure (SMILES): CC(C)(C)c1ccc2c(c1)c1cc(C(C)(C)C)ccc1n2-c1ccc2c(c1)C(=O)c1ccc(-n3c4ccc(C(C)(C)C)cc4c4cc(C(C)(C)C)ccc43)cc1C2=O
fluorescence lifetime (in Cc1ccccc1): 7.5 ns | fluorescence lifetime (in c1ccc2c(c1)c1ccccc1n2-c1ccc(-c2ccc(-n3c4ccccc4c4ccccc43)cc2)cc1): 10.4 ns

Structure (SMILES): COc1ccc(N(c2ccccc2)c2ccc(OC)cc2)cc1
fluorescence lifetime (in Cc1ccccc1): 2.27 ns

Structure (SMILES): N#Cc1ccc(/C=C2\OC(=O)c3cc(N)ccc32)cc1
fluorescence lifetime (in CC#N): 0.51 ns | fluorescence lifetime (in CC(C)=O): 0.54 ns | fluorescence lifetime (in CC(C)CO): 2.4 ns | fluorescence lifetime (in CCO): 2.2 ns | fluorescence lifetime (in CCOC(C)=O): 0.75 ns | fluorescence lifetime (in CO): 2.67 ns

fluorescence lifetime (in C1CCCCC1): 3.8 ns
Structure (SMILES): COc1ccc(OC)cc1

fluorescence lifetime (in ClC(Cl)Cl): 0.377 ns
Structure (SMILES): Cc1ccc(C2=Cc3c4ccccc4cc[n+]3[B-](F)(F)O2)cc1

Structure (SMILES): CC(C)(C)c1ccc2c(c1)c1cc(C(C)(C)C)ccc1n2-c1ccc(S(=O)(=O)c2ccc(-n3c4ccc(C(C)(C)C)cc4c4cc(C(C)(C)C)ccc43)cc2)cc1
fluorescence lifetime (in Cc1ccccc1): 5.3 ns | fluorescence lifetime (in O=P(c1ccccc1)(c1ccccc1)c1ccccc1Oc1ccccc1P(=O)(c1ccccc1)c1ccccc1): 7.6 ns

fluorescence lifetime (in C1CCCCC1): 1.3 ns | fluorescence lifetime (in ClC(Cl)Cl): 3.5 ns
Structure (SMILES): CN(C)c1ccc(-c2nc(C#N)c(C#N)n2C)cc1

fluorescence lifetime (in C1CCOC1): 15.2 ns | fluorescence lifetime (in CCO): 16.3 ns | fluorescence lifetime (in CN(C)C=O): 15.8 ns
Structure (SMILES): Nc1cccc2c1C(=O)NC2=O

fluorescence lifetime (in C1CCCCC1): 2.2 ns
Structure (SMILES): CN(C)c1ccc2nc(-c3ccc(/C=N/c4ccccc4)cc3)sc2c1

fluorescence lifetime (in C1CCCCC1): 0.61 ns | fluorescence lifetime (in C1COCCO1): 1.3 ns | fluorescence lifetime (in CC#N): 0.291 ns | fluorescence lifetime (in CN(C)C=O): 4.11 ns | fluorescence lifetime (in CO): 0.25 ns | fluorescence lifetime (in O): 0.281 ns | fluorescence lifetime (in OCC(O)CO): 5.79 ns | fluorescence lifetime (in OCCO): 2.52 ns
Structure (SMILES): COc1cc(/C=C2/SC(=O)NC2=O)ccc1O

Structure (SMILES): Cc1nc(-c2ccc(N3c4ccccc4C(c4ccccc4)(c4ccccc4)c4ccccc43)cc2)cc(-c2ccc(N3c4ccccc4C(c4ccccc4)(c4ccccc4)c4ccccc43)cc2)n1
fluorescence lifetime [1]: 11 ns

Structure (SMILES): Cc1cc(C)c2c(c1)c1cc(C)cc(C)c1n2-c1ccc2c(c1)Sc1cc3c(cc1B2c1c(C(C)C)cc(C(C)C)cc1C(C)C)B(c1c(C(C)C)cc(C(C)C)cc1C(C)C)c1ccccc1S3
fluorescence lifetime (in Cc1ccccc1): 0.65 ns | fluorescence lifetime [1]: 2 ns

Structure (SMILES): Cc1cc(C#Cc2ccccc2)c2ccc3c(C#Cc4ccccc4)cc(C#Cc4ccccc4)c4ccc1c2c43
fluorescence lifetime (in CS(C)=O): 1.89 ns | fluorescence lifetime (in ClC(Cl)(Cl)Cl): 1.57 ns

Structure (SMILES): CC1(C)Nc2cc(Cl)ccc2-c2[nH]c3ccccc3c(=O)c21
fluorescence lifetime (in C1CCOC1): 7.47 ns | fluorescence lifetime (in CC#N): 8.72 ns | fluorescence lifetime (in CCCCO): 9.26 ns | fluorescence lifetime (in CCCO): 9.2 ns | fluorescence lifetime (in CCO): 9 ns | fluorescence lifetime (in CCOC(C)=O): 7.52 ns | fluorescence lifetime (in CN(C)C=O): 9.36 ns | fluorescence lifetime (in CO): 8.67 ns | fluorescence lifetime (in CS(C)=O): 9.91 ns | fluorescence lifetime (in Cc1ccccc1): 6.68 ns | fluorescence lifetime (in ClC(Cl)(Cl)Cl): 4.8 ns | fluorescence lifetime (in ClCCl): 8.06 ns | fluorescence lifetime (in O): 8.68 ns | fluorescence lifetime (in c1ccccc1): 6.71 ns

fluorescence lifetime (in CCCCCCCCCC): 3.1 ns | fluorescence lifetime (in CCCCO): 1.5 ns
Structure (SMILES): CC/C=C/C=C/C=C/C=C/CCCCCCCC(=O)O

fluorescence lifetime (in CN(C)C=O): 0.95 ns
Structure (SMILES): CCCCCCCCC1(CCCCCCCC)c2cc(-c3ccc(C#N)cc3)ccc2-c2ccc(-c3ccc(C#N)cc3)cc21

fluorescence lifetime (in CCCO): 4.75 ns
Structure (SMILES): CCOC(=O)c1ccc2c(c1)[nH]c1c3ccc(C(=O)OCC)cc3[nH]c21

Structure (SMILES): COC(=O)C(Cc1ccc2oc(-c3ccc(N(C)C)cc3)nc2c1)NC(=O)OC(C)(C)C (centres undefined)
fluorescence lifetime (in C1CCCCC1): 1.02 ns | fluorescence lifetime (in C1CCOC1): 1.21 ns | fluorescence lifetime (in C1COCCO1): 1.21 ns | fluorescence lifetime (in CC1CCCO1): 1.15 ns | fluorescence lifetime (in CC1COC(=O)O1): 1.41 ns | fluorescence lifetime (in CC#N): 1.32 ns | fluorescence lifetime (in CC(C)=O): 1.26 ns | fluorescence lifetime (in CC(C)CC(C)(C)C): 1.02 ns | fluorescence lifetime (in CC(C)CO): 1.29 ns | fluorescence lifetime (in CC(C)O): 1.3 ns | fluorescence lifetime (in CC(C)OC(C)C): 1.2 ns | fluorescence lifetime (in CC(O)CO): 1.32 ns | fluorescence lifetime (in CCC(C)CC): 1 ns | fluorescence lifetime (in CCCCC): 1.12 ns | fluorescence lifetime (in CCCCCC): 1.04 ns | fluorescence lifetime (in CCCCCCCCC): 1.08 ns | fluorescence lifetime (in CCCCCCCCCC): 1.09 ns | fluorescence lifetime (in CCCCCCCO): 1.3 ns | fluorescence lifetime (in CCCCCCO): 1.32 ns | fluorescence lifetime (in CCCCCO): 1.25 ns | fluorescence lifetime (in CCCCO): 1.29 ns | fluorescence lifetime (in CCO): 1.35 ns | fluorescence lifetime (in CCOC(C)=O): 1.19 ns | fluorescence lifetime (in CCOCC): 1.24 ns | fluorescence lifetime (in CN(C)C=O): 1.28 ns | fluorescence lifetime (in CO): 1.26 ns | fluorescence lifetime (in COCCOC): 0.88 ns | fluorescence lifetime (in CS(C)=O): 1.26 ns | fluorescence lifetime (in Cc1ccccc1): 1.04 ns | fluorescence lifetime (in Cc1ccccc1C): 1.07 ns | fluorescence lifetime (in ClC(Cl)Cl): 0.79 ns | fluorescence lifetime (in ClCCl): 1.23 ns | fluorescence lifetime (in NC=O): 1.14 ns | fluorescence lifetime (in OC1CCCCC1): 1.28 ns | fluorescence lifetime (in OCCO): 1.13 ns | fluorescence lifetime (in c1ccccc1): 1.08 ns
